Source: patent US20260355318A1, “MOLECULAR MACHINES FOR TREATMENT OF CANCER, FUNGAL INFECTIONS, OR BACTERIAL INFECTIONS” (priority 2022, published 2026)

Experiments:
E. cloacae = test: MIC, E. cloacae; assay type: cell-based; conditions: Enterobacter cloacae, read-out: MIC of MM
Procedure: The appropriate volume of an MM stock at 8 mM necessary to achieve a concentration ranging from 0.3125 to 40 μM was pipetted into a 2 mL microcentrifuge tube to which 1 mL of cell suspension prepared as previously described was added. Corresponding negative controls (DMSO only) were prepared in the same way. The mixture was gently mixed by pipetting and incubated in the dark at 30 or 37 ° C, depending on the strain, for 30 min with agitation (220 rpm). Afterward, MM- or DMSO-treated cells were dispensed in one well of a 24-well plate positioned in the center of the light beam (405 nm LED Light, Prizmatix, UHP—F-5-405) placed at the appropriate distance necessary to achieve the desired light intensity of 304 mW cm-2, 146 mW cm2 or 87 mW cm2, as measured with a handheld digital power meter console coupled to an S415C thermal power sensor head (Thorlabs, Newton, MA, USA). The temperature during irradiation was monitored using a thermocouple probe (Model SC-TT-K-30-36-PP; Omega Engineering, Inc., Stanford, CT, USA). Samples were agitated during irradiation. Dark controls were prepared as previously described except that no irradiation was provided. […]

HEK293T cells = test: Toxicity to HEK293T cells (CellTiter-Glo) and therapeutic index; assay type: cell-based, human; conditions: ratio between IC50 (HEK293T) and MIC
Procedure: The toxicity of visible-light-activated MMs to mammalian cells was investigated in human embryonic kidney cells (HEK293T) treated with increasing MM concentrations and 87.6 J cm^−2 of 405-nm light. […] The MM concentration that reduced viability by 50% (IC50), calculated from dose-response curves (FIG. 16C), ranged from 1.61-6.02 µM (FIG. 16D). The IC50 and MIC were used to calculate the therapeutic index. With a therapeutic index ≥1 (FIG. 16D), MM 1 was used for in vivo and ex vivo studies.
The biocompatibility of MMs with […] HEK293T cells was assessed using the CellTiter-Glo® Luminescent Cell Viability Assay (Promega, WI, USA) per the manufacturer's instructions by treating cells with increasing concentrations of different MMs plus 405-nm light (87.6 J cm^−2). Dose-response curves were used to determine the MM concentrations that reduced cell viability by 50% (IC50). The therapeutic index was calculated as the ratio between the IC50 and the MIC.

[1] = system: mature C. albicans biofilms; test: Biofilm viability (XTT assay); assay type: cell-based, Candida albicans; conditions: 2×, 4×MIC, vs DMSO, MMs with 87.6 J cm^−2 405-nm light
Procedure: The antibiofilm activity of MMs was investigated using 96-well microtiter plates with flat-bottom wells as a closed static biofilm reactor. This setup is reliable, inexpensive, easy to use and obtain, and requires no additional equipment (Pierce et al., 2010). Two parameters were used to evaluate antibiofilm activity: biofilm biomass and biofilm viability. Biofilm biomass was determined using the crystal violet method (Martins et al, 2010), a simple, inexpensive, and readily accessible method for determining biofilm biomass. However, because crystal violet binds both live and dead cells as well as extracellular polymeric substances, it cannot be used alone to reliably assess antibiofilm activity. To overcome this limitation, the XTT assay was used to evaluate biofilm viability (Nett et al., 2011). […] The resulting formazan can be easily detected by measuring the absorbance at 490 nm, which is proportional to the number of living cells, providing a reliable quantitative measurement of metabolically active cells in biofilms (Taff et al., 2012). […]
Biofilm viability was determined using an XTT cell viability assay kit (Biotium, Hayward, CA, USA) per the manufacturer's instructions. […] Normalized absorbance values were obtained by subtracting the background from the signal.

[2] = system: C. albicans mitochondria and plasma membrane; test: Colocalization analysis by confocal microscopy; assay type: cell-based, Candida albicans; conditions: no light
Procedure: Colocalization analysis of MMs was performed as previously described (Benhamou et al., 2018; Vida and Emr, 1995) with modifications. A single isolated colony was picked from 24-h SDAE plates, diluted in liquid YPD, and grown at 30 ° C for 24 h. Cells were then re-diluted in fresh YPD medium and grown statically in Ibidi u-dishes (Ibidi GmbH, Munich, Germany) for 24 h at 30 ° C The cells were washed, and then YPD medium containing 8 μM MM 1 and 10 nM MitoTracker™ Green (Thermo Fisher Scientific, MA, USA) was added. After a 30-min dark incubation at 30 ° C, the solution was replaced with fresh medium containing 40 nM FM™ 4-64 (Thermo Fisher Scientific, MA, USA). Cells were immediately imaged in a Nikon Al—RSI confocal system mounted on a Nikon Ti-E widefield fluorescence microscope (Nikon Corporation, NY, USA). Cells were imaged directly on the Ibidi imaging dish using a 60×water immersion objective (numerical aperture of 1.27, 0.17 mm working distance). Colocalization was calculated in the Fiji version of ImageJ using the Colocalization Threshold tool and the Coloc-2 plugin.

Row | SMILES | MIC (E. cloacae) [µM] | therapeutic index (HEK293T cells) | reduction of biofilm viability [1] | areal colocalization with FM 4-64 [2] [%] | areal colocalization with MitoTracker Green [2] [%]
1 | C[C@@H]1Cc2ccc3ccccc3c2/C1=C1\c2ccccc2Sc2cc(NCCN)ccc21 (racemic) [MM 6, N^1-(9-(2-methyl-2,3-dihydro-1H-cyclopenta[a]naphthalen-1-ylidene)-9H-thioxanthen-3-yl)ethane-1,2-diamine] | 10 |  |  |  | 
2 | C[C@@H]1Cc2ccc3ccccc3c2/C1=C1\c2ccccc2Sc2cc(NCCN(C)C)ccc21 [MM 1, N^1N^1-dimethyl-N^2-(9-(2-methyl-2,3-dihydro-1H-cyclopenta[a]naphthalen-1-ylidene)-9H-thioxanthen-3-yl) ethane-1,2-diamine] |  | ≥ 1 | up to 96% | 5.2 | 52.5
